Laboratory results reported in patent US20090298055A1, “PRODUCTION OF PROTEINS” (Applied Research Systems ARS Holding S.A., priority 2004, published 2009).
“Also recorded” adds a separate entry of the source.

Assays:
Format in all cases: cell-based, Chinese hamster
[1] = system: CHO AA8 C4R0.15 and CHO AA8 C5R0.15 cells; assay: F-MTX staining and competition with antifolates (flow cytometry); settings: CHO AA8 C4R0.15 and C5R0.15 cells
Procedure: (§1) F-MTX staining and competition with hydrophilic and lipophilic antifolates—Cells were seeded in 60-mm Petri dish and incubated for 8 hours at 37° C. in growth medium containing 2 μM fluorescein-MTX (F-MTX). Cells were then washed with PBS and subjected to competition with MTX and its lipophilic analogue TMQ. Following 3 hours of incubation, cells were detached by trypsinization, suspended in PBS containing 1% fetal calf serum and the residual green fluorescence per cell was determined using a flow cytometer (FACSCalibur, Becton-Dickinson) at an excitation of 488 nm and emission of 525 nm. Autofluorescence of unstained cells was routinely recorded.

CHO-S R0.15 cells = assay: as above; settings: for concentration for complete displacement of F-MTX: 2 μM F-MTX, 3 hours competition
Procedure: as §1

CHO AA8 cells [2] = assay: as above
Procedure: as §1

CHO-S cells [3] = assay: as above; settings: 2 μM F-MTX, 3 hours competition
Procedure: as §1

[4] = system: hRFC and hRFC-HA CHO AA8 C5R0.15 transfectants; assay: MTX growth inhibition assay
Procedure: (§2) Cell growth inhibition by antifolates—For antifolate cell growth inhibition, cells (10^4/well) were seeded in 24-well plates in the respective growth medium (AA8 and derivatives in RPMI+10% FCS, and CHO-S cells in CD-CHO) containing various concentrations of MTX or the lipophilic antifolates, trimeterxate (Dr. David Fry, Warner-Lambert, Parke-Davis, Detroit, Mich.) and incubated for 3 days at 37° C. Thereafter, cells were detached by trypsinization and the number of viable cells was determined using trypan blue exclusion. The 50% inhibitory concentration (IC50) is defined as the drug concentration at which cell growth is inhibited by 50% relative to untreated controls.
(§3) Cell growth assays and inhibition by antifolates—as described in Example 2, hereinabove.

[5] = system: parental CHO AA8 C5 cells (RFC deficient); assay: MTX growth inhibition assay; settings: Cricetulus griseus, 72 h, 3 days
Procedure: as §2, §3

[6] = system: CHO AA8 C4 R0.15 and C5 R0.15 cell lines; assay: [3H]-MTX transport assay; settings: 2 μM [3H]-MTX, 3 minutes
Procedure: (§4) [^3H]-MTX transport—In order to determine the ability of the antifolate-resistant clones to take up antifolates the influx rates of [^3H]-MTX were measured and compared to the control CHO AA8 cells. Cells (2×10^7) from the mid-log phase of growth were washed three times in transport buffer consisting of HEPES-buffered saline solution (HBSS, Rothem et al., 2002) and incubated for 3 minutes at 37° C. in the presence of HBSS (1 ml suspensions) containing 2 μM [^3H]-MTX. Transport controls contained a 500-fold excess (1 mM) of unlabeled MTX. The transport of [^3H]-MTX was stopped by the addition of 10 ml of ice-cold HBSS. The cell suspension was then centrifuged for 5 minutes at 4° C. using a centrifugation speed of 500×g, following which the cell pellet was washed twice with 10 ml of ice-cold transport buffer. The final cell pellet was suspended in water and processed for scintillation counting.

[7] = system: CHO-S-R0.04 cells (selected in 40 nM MTX); assay: [3H]-MTX transport assay; settings: 2 μM [3H]-MTX, 3 minutes
Procedure: as §4

[8] = system: CHO-S-R0.12 cells (selected in 120 nM MTX); assay: [3H]-MTX transport assay; settings: 2 μM [3H]-MTX, 3 minutes
Procedure: as §4

[9] = system: MTX-resistant CHO AA8 C4R0.15 and C5R0.15 cells; assay: Cell growth inhibition by lipophilic antifolates; settings: data not shown
Procedure: as §2

CHO AA8 cells [10] = assay: Cell growth inhibition by lipophilic antifolates; settings: Cricetulus griseus; printed after 'CHO AA8 counterpart', data not shown
Procedure: as §2

[11] = system: CHO-S R0.15 cells (RFC deficient); assay: Cell growth inhibition by antifolates (trypan blue exclusion, 3 days)
Procedure: as §2

CHO-S cells [12] = assay: as above; settings: Cricetulus griseus, 72 h, read-out: 50% inhibition of cell growth (IC50)
Procedure: as §2

Compound	concentration required to completely displace F-MTX fluorescence [1]	concentration for complete displacement of F-MTX (CHO-S R0.15 cells)	loss of cellular F-MTX staining (CHO-S R0.15 cells; competition with 100 nM MTX)	concentration resulting in complete loss of F-MTX fluorescence (CHO AA8 cells [2])	concentration at which cells completely lost their F-MTX staining (CHO-S cells [3])	IC50 ([4]; Cricetulus griseus, CHO-AA8, 72 h, hRFC and hRFC-HA transfectants, 3 days)	increase in MTX sensitivity ([4]; RFC and RFC-HA transfectants vs C5R0.15 cells)	IC50 [5]	loss of MTX uptake relative to control AA8 cells [6]	loss of control CHO-S transport activity [7]	loss of control CHO-S transport activity [8]	hypersensitivity compared to CHO AA8 counterpart [9]	IC50 (CHO AA8 cells [10])	concentration resulting in complete loss of F-MTX fluorescence (CHO-S cells [3])	IC50 ([11]; Cricetulus griseus, 72 h, CHO-S R0.15 cells, read-out: 50% inhibition of cell growth (IC50))	hypersensitivity of CHO-SR0.15 cells as compared with parental CHO cells ([11]; ratio of 50% inhibitory concentrations)	IC50 (CHO-S cells [12])
CN(Cc1cnc2nc(N)nc(N)c2n1)c1ccc(C(=O)N[C@@H](CCC(=O)O)C(=O)O)cc1 [MTX, methotrexate]	3 µM	1000 nM	did not result in any loss; also recorded: Retention of F-MTX fluorescence	30 nM	100 nM	27 to 29 nM	100 fold	~3000 nM	90-91%	92.5%	96.4%						
COc1ccc(OC)c(Cc2cnc3nc(N)nc(N)c3c2C)c1 [PTX, piritrexim]												> 3 fold	~8 nM				
COc1cc(NCc2ccc3nc(N)nc(N)c3c2C)cc(OC)c1OC [TMQ, Trimetrexate]		10 nM										> 5 fold	~6 nM	10 nM	10 nM	8 fold	~40 nM
